Structures can show the parent of a compound that is named as a salt.
How the values were obtained:
[1] = system: Mexican Heather plants; assay: Soil application of IDS and/or EDDS free acids to Mexican heather plants (Example IV); assay type: in vivo, Cuphea hyssopifolia Kunth.; settings: 200 ppm free acid; for root mass versus vegetative growth: within 10 mm of each plant
Protocol: Four sets of six Mexican Heather plants each were placed on trays without transplanting. 0.2 gm/liter stock solutions of IDS and EDDS free acids prepared according to Example III, supra, were used, in three different treatments (EDDS alone, IDS alone and a 50:50 mixture of EDDS and IDS) to treat the three sets of plants as set forth in Table IV, attached, by placing the solutions into the soil within 10 mm. of each of the plants. A fourth set was treated with distilled water (the ‘control’ set).

[2] = system: germinated field corn seeds; assay: Germinated field corn seeds on water plates treated with tetra-sodium salt of EDDS (Example I); assay type: in vivo, Zea mays L.; settings: after 9 days; for NUMBER OF SEED GERMINATED AND SURVIVED: Field corn, 10 seeds per plate
Protocol: (§1) Styrofoam plates were each charged with 80 ml. water. The plates are titled: (a) the ‘control’ plates; (b) the ‘Treatment 1’ plates; and (c) the ‘Treatment 2’ plates.
(§2) Into the ‘control’ plates, the ‘Treatment 1’ plates and the ‘Treatment 2’ plates were placed, at the loading of 10 seeds per plate, germinated sweet corn seeds, germinated field corn seeds, germinated snap bean, seeds, germinated cantaloupe melon seeds and germinated soy bean seeds.
(§3) The ‘Treatment 1’ plates were then each treated with 0.1 ml. of a 38% aqueous solution of the tetra-sodium salt of EDDS (having the structure as set forth in FIG. 15), or 0.000475 gm./plate, or 475 ppm per plate.
(§4) The ‘Treatment 2’ plates were then each treated with 1 ml. of a 38% aqueous solution of the tetra-odium salt of EDDS, or 0.00475 gm./plate or 4750 ppm per plate.
(§5) No EDDS salt was added to the ‘control’ plate.
(§6) Over a period of 9 days, each plate had distilled water added thereto, as needed, in order to make up for the evaporation of the water during the 9 day period.
(§7) 9 days after the trial commenced, the number of germinated seeds which survived were as set forth in attached Table I.

[3] = system: germinated sweet corn seeds; assay: Germinated sweet corn seeds on water plates treated with tetra-sodium salt of EDDS (Example I); assay type: in vivo, Zea mays L. var. saccharata; settings: for NUMBER OF SEED GERMINATED AND SURVIVED: Sweet corn, 10 seeds per plate; for germinating-seed stimulating concentration: germinating sweet corn seed, treating solution
Protocol: as §1, §2, §3, §4, §5, §6, §7

[4] = system: germinated cantaloupe melon seeds; assay: Germinated cantaloupe melon seeds on water plates treated with tetra-sodium salt of EDDS (Example I); assay type: in vivo; settings: 10 seeds per plate, after 9 days
Protocol: as §1, §2, §3, §4, §5, §6, §7

[5] = system: germinated snap bean seeds; assay: Germinated snap bean seeds on water plates treated with tetra-sodium salt of EDDS (Example I); assay type: in vivo, Phaseolus vulgaris L.; settings: Snap beans, 10 seeds per plate, after 9 days
Protocol: as §1, §2, §3, §4, §5, §6, §7

[6] = system: Lettuce seeds; settings: cultured in a fertilizer soln. contg. 100 ppm; cited from earlier work
[7] = system: sweet corn seeds; assay: Sweet corn seeds on water plates treated with IDS salt alone or with EDDS salt (Example II); assay type: in vivo, Zea mays L. var. saccharata; settings: 9 day period; IDS salt 4630 or 463 ppm per plate, or IDS + EDDS salt mixture (Treatment 3)
Protocol: Styrofoam plates were each charged with 80 ml. water. The plates are titled: (a) the ‘control’ plates; (b) the ‘Treatment 1’ plates; (c) the ‘Treatment 2’ plates and (d) the ‘Treatment 3’ plates.
Into the ‘control’ plates, the ‘Treatment 1’ plates, the ‘Treatment 2’ plates and the ‘Treatment 3’ plates, were placed, at a loading of 6 seeds per plate, sweet corn seeds, field corn seeds, cantaloupe melon seeds and soy bean seeds.
The ‘Treatment 1’ plates were then each treated with 1 ml. of a 37% solution of the tri-potassium salt of IDS (having the structure as set forth in FIG. 17), or 0.00463 gm./plate or 4630 ppm per plate.
The ‘Treatment 2’ plates were then each treated with 0.1 ml. of a 37% solution of the tri-potassium salt of IDS, or 0.000463 gm./plate, or 463 ppm per plate.
The ‘Treatment 3’ plates were then each treated with a mixture 0.5 ml. of a 37% solution of the tri-potassium salt of IDS and 0.5 ml. of a 38% solution of the tetra-sodium salt of EDDS, or 0.000231 gm/plate of the IDS salt and 0.000238 gm./plate of the EDDS salt.
No EDDS or IDS salts were added to the control plate.
Over a period of 9 days, each plate had distilled water added thereto, as needed, in order to make up for the evaporation of water during the 9 day period.
9 days after the trial commenced, the number of germinated seeds which survived were as set forth in attached Table II.

[8] = Treatment 1 (EDDS at 0.1 ml Per liter; 475 ppm per plate)
[9] = Treatment 2 (EDDS at 1 ml Per liter; 4750 ppm per plate)

O=C(O)CC(NCCNC(CC(=O)O)C(=O)O)C(=O)O (mixture of isomers) [EDDS free acid, N,N′-1,2-ethanediylbis-aspartic acid]
leaf position and internode lengths at the end of the experiment [1]: the plant leaves are lower on the main stem and internode lengths are shortened | root mass versus vegetative growth [1]: promoted a greater root mass at the expense of vegetative growth

O=C(O)CC(NCCNC(CC(=O)O)C(=O)O)C(=O)O (mixture of isomers) [tetra-sodium salt of EDDS, N,N′-1,2-ethanediylbis-aspartic acid]
NUMBER OF SEED GERMINATED AND SURVIVED [2, 8]: 9 | NUMBER OF SEED GERMINATED AND SURVIVED [2, 9]: 4 | germination and growth of the field corn ([2]; Treatment 2 plates (4750 ppm per plate)): inhibition of the germination and growth | NUMBER OF SEED GERMINATED AND SURVIVED ([3]; Treatment 1 (EDDS at 0.1 ml Per liter; 475 ppm per plate), after 9 days): 10 | NUMBER OF SEED GERMINATED AND SURVIVED ([3]; Treatment 2 (EDDS at 1 ml Per liter; 4750 ppm per plate), after 9 days): 7 | germination and growth of the germinated sweet corn seeds, as compared with the control ([3]; Treatment 1 plates (475 ppm per plate), after 9 days): uniform germination and growth | germination and growth of the sweet corn ([3]; Treatment 2 plates (4750 ppm per plate), after 9 days): inhibition of the germination and growth | action on germinating seed ([3]; at a concentration of about 10×10^−4 gram moles per liter): acts as a germinating seed growth regulator | germinating-seed stimulating concentration [3]: about 1×10^−4 gram moles per liter | NUMBER OF SEED GERMINATED AND SURVIVED [4, 8]: 1 | NUMBER OF SEED GERMINATED AND SURVIVED [4, 9]: 0 | NUMBER OF SEED GERMINATED AND SURVIVED [5, 8]: 5 | NUMBER OF SEED GERMINATED AND SURVIVED [5, 9]: 1

O=C(O)CC(N[C@@H](CC(=O)O)C(=O)O)C(=O)O (stereo partly shown) [IDS free acid, N-(1,2-dicarboxyethyl)aspartic acid]
root mass versus vegetative growth [1]: promoted a greater root mass at the expense of vegetative growth, although to a significantly lesser extent than done using EDDS

O=C(O)C[C@H](NCCN[C@@H](CC(=O)O)C(=O)O)C(=O)O [S,S-ethylenediamine-N,N-disuccinic acid]
plant growth of lettuce [6]: good plant growth

O=C(O)CC(N[C@@H](CC(=O)O)C(=O)O)C(=O)O (stereo partly shown) [tri-potassium salt of IDS, N-(1,2-dicarboxyethyl)aspartic acid]
germinating-seed stimulating concentration [3]: about 1×10^−4 gram moles per liter | germination and uniformity of seedling growth, sweet corn seeds [7]: germinated and the resulting seedlings started to grow more uniformly
